The first experiment has as its system GUMC-403. In words: viability at highest tested concentration (max response) relative to DMSO (% of DMSO control); higher = less cytotoxic. The settings on record: library / dose series: MIPE library, 11-point 1:3 dilution; top concentration 23 µM; 48 h. The procedure, abridged:
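Viability at the highest tested concentration is given relative to vehicle control. For this, conditionally reprogrammed patient-derived GUMC-403 papilloma cells at 700/well in 1536-well plates were exposed to 23 nL of pinned compound for 48 h. Luminescence from CellTiter-Glo was read on a ViewLux and scaled between empty wells (0%) and vehicle wells (100%).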
In the case of `C[C@]12CC(=O)[C@H]3[C@@H](CC\C4=C\C(=O)\C=C/[C@]34C)[C@@H]1CC[C@]2(O)C(=O)CO`, the viability came out at 131.

The same experiment, now with this note: library / dose series: MIPE library, 11-point 1:3 dilution; top concentration 46.1 µM; 48 h.
With `ClC1=CC\2=C(OC3=C(C=CC=C3)\N=C2N4CCNCC4)C=C1`, the viability amounted to 110.

Consider `NCCCC(O)(P(=O)(O)O)P(=O)(O)O.O.O.O.[Na+]`, for which the viability was found to be 111.

As to `COc1ccc2cc([C@H](C)C(=O)O)ccc2c1`, the viability stood at 97.3.

As to `Cc1n[nH]c(C)c1Cc1sc2c(c1C(=O)N1C[C@H](O)CO1)c(=O)n(C)c(=O)n2CC(C)C`, the viability stood at 119.

In turn, `COC1=CC2=C(C=C1OC)[C@H]3[C@@H](CO2)OC4=C(C=CC5=C4\C=C/C(C)(C)O5)C3=O` yielded a viability of 115.

In the case of `COc1ccc2cccc(CCNC(C)=O)c2c1`, the viability worked out at 108.

In the case of `O=C(Nc1ccccc1Br)N[C@@H]1CCN(c2ccc(C(F)(F)F)cn2)C1`, the viability was determined as 114.

Compound `CC(C)NCC(O)COc1ccc(COCCOC(C)C)cc1` (configuration not stated) gave a viability of 117.

As for `C[N+](C)(C)CC(=O)O.[Cl-]`, the viability is 113.

Consider `OC1=CC2=C(C(=C1)O)C(=O)\C(=C(/O2)C3=CC(=C(O)C=C3)O)O`, for which the viability is 147.

As to `NC(=O)c1cccc(N)c1`, the viability stood at 109.

In the case of `CCN1\C=C(C(O)=O)/C(=O)C2=C1C=C(N3CCN(C)CC3)C(=C2)F`, the viability came out at 115.

On to `C[C@@H]1CC[C@H]2[C@@H](C)C(=O)O[C@@H]3O[C@@]4(C)CC[C@@H]1[C@]32OO4`, for which the viability came to 109.

In the case of `NCC1(CC(=O)O)CCCCC1`, the viability is 115.

`CC(C)CN(C[C@@H](O)[C@H](Cc1ccccc1)NC(=O)O[C@H]1CCOC1)[S+](=O)([O-])c1ccc(N)cc1` returned a viability of 109.

Compound `Clc1ccc(C(Cn2ccnc2)OCc2ccsc2Cl)c(Cl)c1` (configuration not stated) returned a viability of 107.

For the compound `COC1=CC=C(C=C1O)C/2=C/C(=O)C3=C(O2)C=C(O)C=C3O`, the viability came to 76.3.

The compound `CC(C)(C)C(=O)Oc1ccc([S+](=O)([O-])Nc2ccccc2C(=O)NCC(=O)O)cc1` came in with a viability of 113.

Compound `C[C@]12CCC(=O)C(O)=C1CC[C@@H]1[C@@H]2CC[C@]2(C)C(=O)CC[C@@H]12` registered a viability of 113.

On to `N#C/C(=C(/N)Sc1ccc(N)cc1)c1ccccc1C(F)(F)F`, for which the viability stood at 87.9.

On to `Cc1ccnc2c1NC(=O)c1cccnc1N2C1CC1`, for which the viability was determined as 138.

In the case of `Oc1ccc([C@@H]2Oc3ccc(O)cc3[C@@H]3CCC[C@@H]32)cc1`, the viability was found to be 96.3.

As for `O=C1Nc2ccc(I)cc2/C1=C/c1cc(Br)c(O)c(Br)c1`, the viability amounted to 146.

Turning to `OC1=C(O)C2=C(\C=C/C(=O)O2)C=C1`, the viability was 110.

In the case of `O=C1c2cccc(O)c2C(=O)c2c(O)cc(CO)cc21`, the viability was 92.9.

In the case of `O=C/1NC(=O)C(=C1C2=CN=C3C=CC=C[N]23)/C4=C[N]5CCN(CC6=C5C4=CC=C6)C(=O)N7CCOCC7`, the viability is 60.5.

Compound `C[C@H](CCC(=O)O)[C@H]1CCC2C3C[C@H](O)[C@@H]4C[C@H](O)CC[C@]4(C)C3CC[C@@]21C` (some centres not stated) showed a viability of 108.

For `CC[C@H](C)[N]1C=C(C)C2=C1C=C(C=C2C(=O)NC\C3=C(C)\C=C(\C)NC3=O)C4=CC=C(N=C4)N5CCNCC5`, the viability turned out to be 141.

The compound `C[S+](=O)([O-])c1ccc(C(=O)Nc2ccc(Cl)c(-c3ccccn3)c2)c(Cl)c1` had a viability of 100.

`CCOc1ccccc1OCCNC(C)Cc1ccc(OC)c([S+](N)(=O)[O-])c1` (configuration not stated) registered a viability of 135.

Compound `COc1ccc(CCN2CCN(CCCc3ccccc3)CC2)cc1OC` had a viability of 120.

For `CCOC(=O)\C1=C\[C@]2(CC)CCCN3CCC4=C([C@H]23)[N]1C5=C4C=CC=C5`, the viability came to 83.9.

For `NC(=O)c1ccc(-c2nc(-c3ccc4c(c3)OCCO4)c(-c3ccccn3)[nH]2)cc1`, the viability is 131.

With `COc1cccc2c(NCc3ccccc3)nc(-n3c(N)nc4ccccc43)nc12`, the viability was determined as 131.

Regarding `COC1=CC=C2[C@H]3CC[C@]4(C)[C@H](CC[C@H]4[C@@H]3CCC2=C1)NCCCCCCN5C(=O)\C=C/C5=O`, the viability is 129.

In the case of `OCCN1CCN(CCCN2c3ccccc3Sc3ccc(C(F)(F)F)cc32)CC1`, the viability was 97.2.

For `Cc1c(C(=O)c2cccc3ccccc23)c2cccc3c2n1[C@H](CN1CCOCC1)CO3`, the viability is 76.9.

Compound `CN1CCN2c3ccccc3Cc3ccccc3C2C1` (configuration not stated) returned a viability of 106.

In turn, `CCn1cc(-c2ccnc3[nH]c(-c4cccc(CN(C)C)c4)cc23)c(-c2ccc(NC(=O)N(C)C)cc2)n1` had a viability of 54.6.

`CNC(=O)c1cc(Oc2ccc(NC(=O)Nc3ccc(Cl)c(C(F)(F)F)c3)cc2)ccn1`: the viability turned out to be 87.

`CC(O)(C[S+](=O)([O-])c1ccc(F)cc1)C(=O)Nc1ccc(C#N)c(C(F)(F)F)c1` (configuration not stated) yielded a viability of 114.

For `O=C(CCCN1CCC(O)(c2ccc(Cl)cc2)CC1)c1ccc(F)cc1`, the viability stood at 105.

For `CNC(=O)c1c(-c2ccc(F)cc2)oc2cc(N(CCO)[S+](C)(=O)[O-])c(C3CC3)cc12`, the viability came out at 69.1.

Take `C[C@H]1CC2C3CCC/4=C/C(=O)/C=C\[C@]4(C)[C@@]3(F)[C@@H](O)C[C@]2(C)[C@@]1(O)C(=O)CO` (some centres not stated): the viability amounted to 127.

Regarding `COCCNCCCn1c(C(=O)CF)c(-c2ccc(C)cc2)c2c(N)ncnc21`, the viability is 90.7.

The compound `C[C@@H](O)[C@@H]1[C@H]2[C@@H](C)\C(=C(/N2C1=O)C(=O)OCOC(=O)C(C)(C)C)SC3CN(C3)/C4=N/CCS4` yielded a viability of 78.1.

On to `C1Cc2[nH]nc(-c3nn[nH]n3)c2C1`, for which the viability is 118.

`COc1cccc(N(C)C(=S)Oc2ccc3c(c2)CCCC3)n1` had a viability of 126.

Regarding `O=C1c2c(O)cccc2[C@H]([C@@H]2O[C@H](CO)[C@@H](O)[C@H](O)[C@H]2O)c2cc(CO)cc(O)c21`, the viability stood at 119.

For the compound `O=S(=O)([O-])CCS.[Na+]`, the viability was 147.

In turn, `COc1cccc(OC)c1-c1cc(C(=O)NC2(C(=O)O)C3CC4CC(C3)CC2C4)nn1-c1ccnc2cc(Cl)ccc12` (configuration not stated) gave a viability of 124.

`O=C(Nc1ccccc1)Nc1ccc(-c2ccc(C(=O)[C@@H]3CCC[C@H]3C(=O)O)cc2)cc1` gave a viability of 128.

Regarding `C#CCN[C@@H]1CCc2ccccc21.CS(=O)(=O)O`, the viability is 89.

Take `Cc1nnc(N[S+](=O)([O-])c2ccc(N)cc2)s1`: the viability came to 113.

The compound `COc1cc2c(Nc3ccc(NC(=O)c4ccccc4)cc3)ncnc2cc1OCCCN1CCOCC1` came in with a viability of 117.

`Clc1ccc(COC(Cn2ccnc2)c2ccc(Cl)cc2Cl)c(Cl)c1` (configuration not stated): the viability amounted to 92.5.

Regarding `COc1cc(C(C)=O)ccc1OCCCN1CCC(c2noc3cc(F)ccc23)CC1`, the viability is 102.

The compound `NC(=O)Nc1cc(-c2ccc(CN3CCOCC3)cc2)sc1C(N)=O` returned a viability of 70.6.

In turn, `C[C@]12CC[C@@H]3c4ccc(O)cc4CC[C@H]3[C@@H]1CC[C@@H]2O` registered a viability of 86.3.

Regarding `Cc1ccc(Nc2cc(-c3cccc(N4C(=O)c5ccccc5C4=O)c3)ncn2)cc1N[S+](C)(=O)[O-]`, the viability was determined as 117.

With `CCOc1cc(N)c(Cl)cc1C(=O)NCC1CN(Cc2ccc(F)cc2)CCO1` (configuration not stated), the viability stood at 85.7.

The compound `COc1ccc(-c2ccc3cc(C(=O)O)ccc3c2)cc1C12CC3CC(CC(C3)C1)C2` yielded a viability of 112.

On to `Fc1ccc(Cl)cc1-c1nc(Nc2ccncc2)c2nccnc2n1`, for which the viability was found to be 128.

The compound `COc1ccc(C(C)=O)c(O)c1` displayed a viability of 103.

`O=C(CCCCCCC(=O)Nc1ccccc1)NO`: the viability was 99.

The compound `Cc1cc(-c2ncc(CC(=O)Nc3ccc(-c4cnccn4)cn3)cc2C)ccn1` came in with a viability of 85.8.

In the case of `CC1(C)CCC(=C(\C1)C2=CC=C(Cl)C=C2)/CN3CCN(CC3)C4=CC(=C(C=C4)C(=O)N[S+]([O-])(=O)C5=CC=C(NCC6CCOCC6)C(=C5)[N+]([O-])=O)OC7=CN=C8[NH]C=CC8=C7`, the viability stood at 105.

Take `O=C(CCc1ccc(O)cc1)c1c(O)cc(O)cc1O[C@@H]1O[C@H](CO)[C@@H](O)[C@H](O)[C@H]1O`: the viability was 98.5.

Compound `COC(=O)N1CCN(Cc2cccc(NC(=O)Nc3ccc(C)nc3)c2F)CC1` displayed a viability of 105.

As to `O=C(/C=C/c1ccc(/C=C/C(=O)Nc2ccc(C3=NCCN3)cc2)cc1)Nc1ccc(C2=NCCN2)cc1`, the viability came out at 117.

Consider `CCOC(=O)N1CCN(/[N+]([O-])=N/Oc2ccc([N+](=O)[O-])cc2C#N)CC1`, for which the viability stood at 92.1.

`ClC1=CC=C(CCCOC/2=N/NC(=O)C(=C2NCC3=CN=CC=C3)/Br)C=C1`: the viability was found to be 83.2.

`C[C@]12CC[C@@H]3c4ccc(OC(=O)N(CCCl)CCCl)cc4CC[C@H]3[C@@H]1CC[C@@H]2OP(=O)([O-])[O-].[Na+].[Na+]` registered a viability of 124.

On to `O=C1CSC(=O)N1C(CCc1ccncc1)COc1ccc(-c2cccc([N+](=O)[O-])c2)cc1` (configuration not stated), for which the viability worked out at 79.8.

Turning to `NCC/1=C/NC(=S)N1[C@H]2CCC3=C(F)C=C(F)C=C3C2`, the viability worked out at 95.9.

The experiment is the same for the next values; noted with them: library / dose series: MIPE library, 11-point 1:3 dilution; top concentration 92.2 µM; 48 h.
For `CC(C)(C)c1[nH]cnc1/C=c1\[nH]c(=O)/c(=C/c2ccccc2)[nH]c1=O`, the viability came out at 95.3.

Values taken from the supplement of paper PMC6723410.
